Experimental data taken from article PMC9250534, “Synthesis and direct assay of large macrocycle diversities by combinatorial late-stage modification at picomole scale” (Nature Communications, 2022).
One block for each compound: values may come before it. Numbered stars: 1 amine (or outer) side, 2 acyl side, 3 side chain; on linkers, the order of the positions; unused ones are H or OH. Bridge positions count the residues as written; N and C are the ends. Square brackets hold non-standard residues; d marks the D form. Peptide text beside a SMILES is read from it. * marks the point of attachment. ξ: configuration not given here. Pro(cis-4-NH-(E)-Cinnamoyl) = O=C(/C=C/c1ccccc1)N[C@@H]1CN[C@H](C(=O)O)C1; ξPro(4-NHCO(5-Cl-2-thienyl)) = O=C(NC1CNC(C(=O)O)C1)c1ccc(Cl)s1; Nicotinoyl(6-OMe) = COc1ccc(C(=O)*)cn1; 2Thenoyl(5-Cl) = O=C(c1ccc(Cl)s1)*; Benzoyl(4-Cl) = O=C(c1ccc(Cl)cc1)*; X10 = O=C(c1cc(-c2ccco2)[nH]n1)*; Cysteamide = C(CS[*:3])N[*:1]; Api = NC1(C(=O)O)CCNCC1; Dap = NC[C@H](N)C(=O)O; Mpa = O=C(O)CCS

Target: MDM2 (Homo sapiens, UniProt Q00987)
Assay: MDM2 binding screen: displacement of fluorescent p53 peptide probe FP53 (fluorescence polarization)
Details: for fraction fluorescent probe displaced, Screen: initial screen; for fraction fluorescent probe displaced, Screen / fraction fluorescent probe displaced, Replicate: crude macrocycle reactions
How it was run: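 Single-point screen: one fluorescence anisotropy reading at 25 °C (485 nm excitation, 535 nm emission) per macrocycle. Crude macrocycle reactions, final 10 µM, were scored for displacing the fluorescent p53 peptide from human MDM2.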

[1] = 10 µM macrocycle concentration, crude acylated macrocycle (scaffold Mpa-AA1-AA2-AA3 x carboxylic acid), p53-based fluorescent peptide, human MDM2

Sequence of MDM2 (Q00987 whole entry): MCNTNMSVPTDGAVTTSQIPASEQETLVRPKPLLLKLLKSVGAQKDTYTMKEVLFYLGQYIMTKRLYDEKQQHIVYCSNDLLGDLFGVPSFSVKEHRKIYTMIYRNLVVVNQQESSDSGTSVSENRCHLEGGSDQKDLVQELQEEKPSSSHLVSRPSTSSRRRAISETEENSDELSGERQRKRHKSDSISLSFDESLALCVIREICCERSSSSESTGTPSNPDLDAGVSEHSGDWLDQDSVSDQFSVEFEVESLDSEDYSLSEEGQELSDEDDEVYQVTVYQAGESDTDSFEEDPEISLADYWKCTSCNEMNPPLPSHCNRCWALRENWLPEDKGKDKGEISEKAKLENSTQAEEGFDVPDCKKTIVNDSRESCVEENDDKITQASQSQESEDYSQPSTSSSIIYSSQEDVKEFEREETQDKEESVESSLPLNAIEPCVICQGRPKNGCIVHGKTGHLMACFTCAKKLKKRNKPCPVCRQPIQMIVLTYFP

Compound: O=C(C=Cc1ccccc1)NCC1NC(=O)c2cccc(c2)CNC(=O)CCSSCCNC(=O)C(Cc2c[nH]c3ccccc23)NC1=O (stereo not drawn) [X B5 D3 W Acid 91]
- fraction fluorescent probe displaced, Screen (Acid 91): 0.16
- fraction fluorescent probe displaced, Replicate (Acid 91, replicate): 0.29

Compound: O=C1CCNC(=O)C2CC(NC(=O)c3ccc(Cl)cc3)CN2C(=O)CCSSCCNC(=O)C(Cc2c[nH]c3ccccc23)N1 (stereo not drawn) [X D5 B2 W Acid 25]
- fraction fluorescent probe displaced, Screen (Acid 25): 0.15
- fraction fluorescent probe displaced, Replicate (Acid 25, replicate): 0.07

Compound: O=C1NC(Cc2ccccc2)C(=O)N2CCCC2C(=O)NCCSSCCC(=O)N2CCN(C(=O)c3ccc(Cl)cc3)CC12 (stereo not drawn) [X D7 F B1 Acid 25]
- fraction fluorescent probe displaced, Screen (Acid 25): 0.09
- fraction fluorescent probe displaced, Replicate (Acid 25, replicate): 0.07

Compound: O=C1NC(Cc2c[nH]c3ccccc23)C(=O)N2CCN(C(=O)c3ccc(Cl)s3)CC2C(=O)NCCSSCCC(=O)N2CCCC1C2 (stereo not drawn) [X B4 W D7 Acid 14]
- fraction fluorescent probe displaced, Screen (Acid 14): 0.14
- fraction fluorescent probe displaced, Replicate (Acid 14, replicate): 0.25

Compound: O=C1CCSSCCNC(=O)C(Cc2ccccc2)NC(=O)C2CN(C(=O)C=Cc3ccccc3)CCN2C(=O)c2cccc(c2)CN1 (mixture of isomers) [X B5 D7 F Acid 91]
- fraction fluorescent probe displaced, Screen (Acid 91): -0.10
- fraction fluorescent probe displaced, Replicate (Acid 91, replicate): -0.00827

Compound: O=C1CCSSCCNC(=O)[C@H](CNC(=O)c2ccc(Cl)s2)NC(=O)[C@H](Cc2ccccc2)NC(=O)CCN1 [X B2 F D3 Acid 14]
- fraction fluorescent probe displaced, Screen (Acid 14): 0.0241
- fraction fluorescent probe displaced, Replicate (Acid 14, replicate): 0.12

Compound: O=C1CCSSCCNC(=O)C2(CCN(C(=O)c3ccc(Cl)s3)CC2)NC(=O)[C@H](Cc2c[nH]c3ccccc23)NC(=O)CCN1 [X B2 W D6 Acid 14]
- fraction fluorescent probe displaced, Screen (Acid 14): 0.14
- fraction fluorescent probe displaced, Replicate (Acid 14, replicate): 0.0465

Compound: O=C1NC(Cc2ccccc2)C(=O)N2CCN(C(=O)c3ccc(Cl)s3)CC2C(=O)NCCSSCCC(=O)N2CCCC12 (stereo not drawn) [X B1 F D7 Acid 14]
- fraction fluorescent probe displaced, Screen (Acid 14): 0.053
- fraction fluorescent probe displaced, Replicate (Acid 14, replicate): 0.12

Compound: O=C1CCSSCCNC(=O)C2CN(C(=O)c3ccc(Cl)cc3)CCN2C(=O)CCNC(=O)[C@H](Cc2ccccc2)N1 (stereo partly drawn) [X F B2 D7 Acid 25]
- fraction fluorescent probe displaced, Screen (Acid 25): 0.12
- fraction fluorescent probe displaced, Replicate (Acid 25, replicate): 0.10

Compound: O=C(/C=C/c1ccccc1)N[C@H]1C[C@H]2C(=O)N[C@@H](Cc3c[nH]c4ccccc34)C(=O)NCCSSCCC(=O)N3CCC[C@H]3C(=O)N2C1 [X B1 D5 W Acid 91] ([Mpa]P[Pro(cis-4-NH-(E)-Cinnamoyl)]W-Cysteamide; disulfide 1-C)
- fraction fluorescent probe displaced, Screen (Acid 91): 0.03
- fraction fluorescent probe displaced, Replicate (Acid 91, replicate): 0.04

Compound: O=C(NC1CC2C(=O)N3CCCC(C3)C(=O)NC(Cc3c[nH]c4ccccc34)C(=O)NCCSSCCC(=O)N2C1)c1ccc(Cl)s1 (stereo not drawn) [X D5 B4 W Acid 14]
- fraction fluorescent probe displaced, Screen (Acid 14): 0.11
- fraction fluorescent probe displaced, Replicate (Acid 14, replicate): 0.12

Compound: O=C1CCSSCCNC(=O)c2cccc(c2)CNC(=O)C(Cc2ccccc2)NC(=O)C(CNC(=O)c2ccc(Cl)cc2)N1 (stereo not drawn) [X D3 F B5 Acid 25]
- fraction fluorescent probe displaced, Screen (Acid 25): 0.0569
- fraction fluorescent probe displaced, Replicate (Acid 25, replicate): 0.10

Compound: O=C1NCCSSCCC(=O)N2CC(NC(=O)c3ccc(Cl)s3)CC2C(=O)NC(Cc2ccccc2)C(=O)NCc2cccc1c2 (stereo not drawn) [X D5 F B5 Acid 14]
- fraction fluorescent probe displaced, Screen (Acid 14): 0.11
- fraction fluorescent probe displaced, Replicate (Acid 14, replicate): -0.03

Compound: O=C(C=Cc1ccccc1)NCC1NC(=O)C2CCCN(C2)C(=O)CCSSCCNC(=O)C(Cc2c[nH]c3ccccc23)NC1=O (stereo not drawn) [X B4 D3 W Acid 91]
- fraction fluorescent probe displaced, Screen (Acid 91): 0.81
- fraction fluorescent probe displaced, Replicate (Acid 91, replicate): 0.49

Compound: O=C1CCNC(=O)C2(CCN(C(=O)/C=C/c3ccccc3)CC2)NC(=O)CCSSCCNC(=O)[C@H](Cc2ccccc2)N1 [X D6 B2 F Acid 91]
- fraction fluorescent probe displaced, Screen (Acid 91): -0.0241
- fraction fluorescent probe displaced, Replicate (Acid 91, replicate): -0.00827

Compound: O=C(NC[C@@H]1NC(=O)[C@H](Cc2c[nH]c3ccccc23)NC(=O)[C@H]2CCCN(C2)C(=O)CCSSCCNC1=O)c1ccc(Cl)s1 [X B4 W D3 Acid 14]
- fraction fluorescent probe displaced, Screen (Acid 14): 0.11
- fraction fluorescent probe displaced, Replicate (Acid 14, replicate): 0.10

Compound: O=C1CCSSCCNC(=O)[C@@H]2CCCN2C(=O)[C@H](Cc2ccccc2)NC(=O)C2(CCN(C(=O)c3ccc(Cl)s3)CC2)N1 [X D6 F B1 Acid 14] ([Mpa][Api](2Thenoyl(5-Cl))FP-Cysteamide; disulfide 1-C)
- fraction fluorescent probe displaced, Screen (Acid 14): 0.053
- fraction fluorescent probe displaced, Replicate (Acid 14, replicate): 0.07

Compound: O=C1CCSSCCNC(=O)C2CC(NC(=O)c3ccc(Cl)s3)CN2C(=O)C(Cc2ccccc2)NC(=O)CCN1 (stereo not drawn) [X B2 F D5 Acid 14]
- fraction fluorescent probe displaced, Screen (Acid 14): 0.14
- fraction fluorescent probe displaced, Replicate (Acid 14, replicate): 0.07

Compound: O=C1NCCSSCCC(=O)N2CCN(C(=O)c3ccc(Cl)s3)CC2C(=O)NC(Cc2ccccc2)C(=O)N2CCCC1C2 (stereo not drawn) [X D7 F B4 + Acid 14]
- fraction fluorescent probe displaced (crude reaction of macrocycle scaffold with Acid 14, (initial screen)): 0.0241
- fraction fluorescent probe displaced (crude reaction of macrocycle scaffold with Acid 14, replicate): -0.00432

Compound: O=C1CCSSCCNC(=O)[C@H](Cc2c[nH]c3ccccc23)NC(=O)[C@H](CNC(=O)c2ccc(Cl)cc2)NC(=O)c2cccc(c2)CN1 [X B5 D3 W Acid 25]
- fraction fluorescent probe displaced, Screen (Acid 25): 0.25
- fraction fluorescent probe displaced, Replicate (Acid 25, replicate): 0.30

Compound: O=C1CCSSCCNC(=O)[C@H](Cc2c[nH]c3ccccc23)NC(=O)CCNC(=O)[C@H](CNC(=O)c2ccc(Cl)s2)N1 [X D3 B2 W Acid 14]
- fraction fluorescent probe displaced, Screen (Acid 14): 0.17
- fraction fluorescent probe displaced, Replicate (Acid 14, replicate): 0.25

Compound: O=C(NC1CC2C(=O)NC(Cc3ccccc3)C(=O)N3CCCC3C(=O)NCCSSCCC(=O)N2C1)c1ccc(Cl)s1 (stereo not drawn) [X D5 F B1 Acid 14] ([Mpa][ξPro(4-NHCO(5-Cl-2-thienyl))]FP-Cysteamide; disulfide 1-C; configuration not given here)
- fraction fluorescent probe displaced, Screen (Acid 14): 0.28
- fraction fluorescent probe displaced, Replicate (Acid 14, replicate): 0.0465

Compound: O=C1CCSSCCNC(=O)C(Cc2ccccc2)NC(=O)C2(CCN(C(=O)C=Cc3ccccc3)CC2)NC(=O)c2cccc(c2)CN1 (stereo not drawn) [X B5 D6 F Acid 91]
- fraction fluorescent probe displaced, Screen (Acid 91): -0.10
- fraction fluorescent probe displaced, Replicate (Acid 91, replicate): -0.08

Compound: O=C(C=Cc1ccccc1)NC1CC2C(=O)NC(Cc3ccccc3)C(=O)NCCC(=O)NCCSSCCC(=O)N2C1 (stereo not drawn) [X D5 F B2 Acid 91]
- fraction fluorescent probe displaced, Screen (Acid 91): 0.0563
- fraction fluorescent probe displaced, Replicate (Acid 91, replicate): -0.0333

Compound: O=C1CCNC(=O)C2(CCN(C(=O)c3ccc(Cl)s3)CC2)NC(=O)CCSSCCNC(=O)[C@H](Cc2ccccc2)N1 [X D6 B2 F Acid 14]
- fraction fluorescent probe displaced, Screen (Acid 14): 0.08
- fraction fluorescent probe displaced, Replicate (Acid 14, replicate): 0.0465

Second part, the compound after the results:

- fraction fluorescent probe displaced, Screen (Acid 14): 0.11
- fraction fluorescent probe displaced, Replicate (Acid 14, replicate): 0.38
Compound: O=C1CCSSCCNC(=O)C2CCCN(C2)C(=O)C2(CCN(C(=O)c3ccc(Cl)s3)CC2)NC(=O)C(Cc2c[nH]c3ccccc23)N1 (stereo not drawn) [X W D6 B4 Acid 14]

- fraction fluorescent probe displaced, Screen (Acid 25): 0.0569
- fraction fluorescent probe displaced, Replicate (Acid 25, replicate): 0.0465
Compound: O=C1CCSSCCNC(=O)C2(CCN(C(=O)c3ccc(Cl)cc3)CC2)NC(=O)c2cccc(c2)CNC(=O)[C@H](Cc2ccccc2)N1 [X F B5 D6 Acid 25]

- fraction fluorescent probe displaced, Screen (Acid 91): 0.03
- fraction fluorescent probe displaced, Replicate (Acid 91, replicate): 0.04
Compound: O=C1CCSSCCNC(=O)C2CN(C(=O)C=Cc3ccccc3)CCN2C(=O)CCNC(=O)C(Cc2ccccc2)N1 (stereo not drawn) [X F B2 D7 Acid 91]

- fraction fluorescent probe displaced [1]: 0.07009
Compound: O=C(NC[C@@H]1NC(=O)[C@@H]2CCCN2C(=O)CCSSCCNC(=O)[C@H](Cc2ccccc2)NC1=O)c1cc(-c2ccco2)[nH]n1 [X-B1-D3-F + A79] ([Mpa]P[Dap](X10)F-Cysteamide; disulfide 1-C)

- fraction fluorescent probe displaced, Screen (Acid 14): 0.08
- fraction fluorescent probe displaced, Replicate (Acid 14, replicate): -0.00432
Compound: O=C1CCSSCCNC(=O)C2(CCN(C(=O)c3ccc(Cl)s3)CC2)NC(=O)[C@@H]2CCCN2C(=O)[C@H](Cc2c[nH]c3ccccc23)N1 [X W B1 D6 Acid 14] ([Mpa]WP[Api](2Thenoyl(5-Cl))-Cysteamide; disulfide 1-C)

- fraction fluorescent probe displaced [1]: 0.2362
Compound: COc1ccc(C(=O)NC[C@@H]2NC(=O)[C@@H]3CCCN3C(=O)CCSSCCNC(=O)[C@H](Cc3c[nH]c4ccccc34)NC2=O)cn1 [X-B1-D3-W + A10] ([Mpa]P[Dap](Nicotinoyl(6-OMe))W-Cysteamide; disulfide 1-C)

- fraction fluorescent probe displaced, Screen (Acid 25): 0.0569
- fraction fluorescent probe displaced, Replicate (Acid 25, replicate): 0.15
Compound: O=C1CCSSCCNC(=O)[C@@H]2CCCN2C(=O)[C@H](CNC(=O)c2ccc(Cl)cc2)NC(=O)[C@H](Cc2ccccc2)N1 [X F D3 B1 Acid 25] ([Mpa]F[Dap](Benzoyl(4-Cl))P-Cysteamide; disulfide 1-C)

- fraction fluorescent probe displaced, Screen (Acid 14): 0.08
- fraction fluorescent probe displaced, Replicate (Acid 14, replicate): 0.17
Compound: O=C1CCSSCCNC(=O)C2CN(C(=O)c3ccc(Cl)s3)CCN2C(=O)CCNC(=O)C(Cc2c[nH]c3ccccc23)N1 (mixture of isomers) [X W B2 D7 Acid 14]

- fraction fluorescent probe displaced, Screen (Acid 25): 0.28
- fraction fluorescent probe displaced, Replicate (Acid 25, replicate): 0.17
Compound: O=C1CCSSCCNC(=O)[C@H](CNC(=O)c2ccc(Cl)cc2)NC(=O)[C@@H]2CCCN2C(=O)[C@H](Cc2c[nH]c3ccccc23)N1 [X W B1 D3 Acid 25] ([Mpa]WP[Dap](Benzoyl(4-Cl))-Cysteamide; disulfide 1-C)

- fraction fluorescent probe displaced, Screen (Acid 14): 0.14
- fraction fluorescent probe displaced, Replicate (Acid 14, replicate): 0.22
Compound: O=C1CCSSCCNC(=O)c2cccc(c2)CNC(=O)C2(CCN(C(=O)c3ccc(Cl)s3)CC2)NC(=O)[C@H](Cc2c[nH]c3ccccc23)N1 [X W D6 B5 Acid 14]

- fraction fluorescent probe displaced, Screen (Acid 25): 0.19
- fraction fluorescent probe displaced, Replicate (Acid 25, replicate): 0.07
Compound: O=C1CCNC(=O)C2CN(C(=O)c3ccc(Cl)cc3)CCN2C(=O)C(Cc2c[nH]c3ccccc23)NC(=O)CCSSCCN1 (stereo not drawn) [X W D7 B2 Acid 25]

- fraction fluorescent probe displaced, Screen (Acid 25): 0.12
- fraction fluorescent probe displaced, Replicate (Acid 25, replicate): 0.22
Compound: O=C1CCSSCCNC(=O)C(CNC(=O)c2ccc(Cl)cc2)NC(=O)C2CCCN(C2)C(=O)C(Cc2ccccc2)N1 (stereo not drawn) [X F B4 D3 Acid 25]
